Test results published in patent publication US5789386A, “Fluorine-containing anthracycline derivatives having hydroxyl groups(s) mono- or di-o-aminoalkanoylated in the sugar moiety thereof” (priority 1995, dated 1998).
≈ marks a conversion by molar mass, not a printed value. Read-outs that look alike come from different tables or passages of the source.

Assays:
Leukemia L-1210 cells = experiment: Antitumor test against leukemia L-1210 in CDF1 mice (T/C, %); assay type: in vivo, mouse (CDF1); conditions: for antitumor activities (in words): compared with FT-DM, FT-ADM, daunomycin, adriamycin or another test compound; for % Increase in life-span (T/C, %) / mice cured and surviving for 60 days or longer / mice tested: 9 days
Method: Thus, to evaluate the antitumor effects of the new compounds according to the first aspect of this invention against experimental tumors in animals, CDF1 mice (four mice per group) were intraperitoneally transplanted with cells of Leukemia L-1210 at an amount of 1×10^5 cells/mouse. Since an elapsed time of 24 hours from the transplantation of the leukemia cells, a test compound according to this invention was administered intraperitoneally to the mice under test for 9 consecutive days once per day. […] While, mice of the control group (the untreated group) were administered with only physiological saline after the transplantation of the L-1210 cells. During the observation period, the numbers of the surviving mice in the treated group and in the control group were counted, and the mean survival days of mice in the treated group and in the control group were then calculated. From the mean survival day (C) of the untreated mice of the control group and the mean survival day (T) of the treated mice of the treated group, there were evaluated percentages (%) of the increase in the life-span of the treated mice, as T/C %. For a comparison purpose, 7-O-(2,6-dideoxy-2-fluoro-α-L-talopyranosyl)daunomycinone (abbreviation: FT-DM); 7-O-(2,6-dideoxy-2-fluoro-α-L-talopyranosyl)adriamycinone(abbreviation: FT-ADM); and adriamycin were also tested in the same manner as above. Incidentally, the mean survival day of mice of the control group (the untreated group) was amounting to 8 to 9 days, and the mean survival day of mice of the comparative groups having received the administration of adriamycin was varying dependently on the dosage of adriamycin.
Notes; Asterisks (*) indicate that development of toxicity such as
toxicityrelated death or a body weight loss was observed on the
corresponding mice tested.

[1] = test system: adriamycin-resistant P388 cells (P388/ADR); experiment: In vitro growth inhibition of adriamycin-resistant P388 cells (P388/ADR), 72 hours; assay type: cell-based; conditions: Mus musculus, 72 hours, test compounds as trifluoroacetate, read-out: IC50
[2] = test system: mouse leukemia, P388 cells; experiment: In vitro growth inhibition of P388 cells, 72 hours; assay type: cell-based
[3] = 0.3 mg/kg/day i.p., ">" = at least one of four mice survived 60 days or longer
[4] = 0.6 mg/kg/day i.p., ">" = at least one of four mice survived 60 days or longer
[5] = 1.25 mg/kg/day i.p., ">" = at least one of four mice survived 60 days or longer
[6] = 2.5 mg/kg/day i.p., ">" = at least one of four mice survived 60 days or longer
[7] = 5 mg/kg/day i.p., ">" = at least one of four mice survived 60 days or longer
[8] = P388, 72 hours, test compounds as trifluoroacetate, read-out: IC50

SMILES: COc1cccc2c1C(=O)c1c(O)c3c(c(O)c1C2=O)C[C@@](O)(C(=O)CO)C[C@@H]3O[C@@H]1O[C@@H](C)[C@@H](O)[C@@H](OC(=O)[C@H](C)N)[C@H]1F [Compound 8b, 7-O-(3-O-L-alanyl-2,6-dideoxy-2-fluoro-α-L-talopyranosyl)adriamycinone]
- antitumor activities (in words) (Leukemia L-1210 cells): remarkably improved antitumor activities in comparison with those of the parent compound, FT-ADM

SMILES: COc1cccc2c1C(=O)c1c(O)c3c(c(O)c1C2=O)C[C@@](O)(C(=O)CO)C[C@@H]3O[C@@H]1O[C@@H](C)[C@@H](OC(=O)[C@H](C)N)[C@@H](O)[C@H]1F [Compound 9b, 7-O-(4-O-L-alanyl-2,6-dideoxy-2-fluoro-α-L-talopyranosyl)adriamycinone]
- antitumor activities (in words) (Leukemia L-1210 cells): remarkably improved antitumor activities in comparison with those of the parent compound, FT-ADM

SMILES: COc1cccc2c1C(=O)c1c(O)c3c(c(O)c1C2=O)C[C@@](O)(C(=O)CO)C[C@@H]3O[C@@H]1O[C@@H](C)[C@@H](OC(=O)CN)[C@@H](OC(=O)CN)[C@H]1F [Compound 11a, 7-O-(2,6-dideoxy-2-fluoro-3,4-di-O-glycyl-α-L-talopyranosyl)adriamycinone]
- % Increase in life-span (T/C, %) (Leukemia L-1210 cells; 0.15 mg/kg/day i.p.): 111%
- % Increase in life-span (T/C, %) (Leukemia L-1210 cells; [3]): 125%
- % Increase in life-span (T/C, %) (Leukemia L-1210 cells; [4]): 170%
- % Increase in life-span (T/C, %) (Leukemia L-1210 cells; [5]): 321%
- mice cured and surviving for 60 days or longer / mice tested (Leukemia L-1210 cells; 2.5 mg/kg/day i.p.): 1/4
- % Increase in life-span (T/C, %) (Leukemia L-1210 cells; [6]): > 430%
- mice cured and surviving for 60 days or longer / mice tested (Leukemia L-1210 cells; 5 mg/kg/day i.p.): 2/4
- % Increase in life-span (T/C, %) (Leukemia L-1210 cells; [7]): > 518%
- IC50 [1]: 0.32 µg/mL (≈ 0.473 µM)
- IC50 ([2]; P388, 72 h): < 0.0098 µg/mL

SMILES: COc1cccc2c1C(=O)c1c(O)c3c(c(O)c1C2=O)C[C@@](O)(C(=O)CO)C[C@@H]3O[C@@H]1O[C@@H](C)[C@@H](OC(=O)[C@H](C)N)[C@@H](OC(=O)[C@H](C)N)[C@H]1F [Compound 11b, 7-O-(3,4-di-O-L-alanyl-2,6-dideoxy-2-fluoro-α-L-talopyranosyl)adriamycinone]
- % Increase in life-span (T/C, %) (Leukemia L-1210 cells; 0.15 mg/kg/day i.p.): 115%
- % Increase in life-span (T/C, %) (Leukemia L-1210 cells; [3]): 144%
- mice cured and surviving for 60 days or longer / mice tested (Leukemia L-1210 cells; 0.6 mg/kg/day i.p.): 1/4
- % Increase in life-span (T/C, %) (Leukemia L-1210 cells; [4]): > 361%
- mice cured and surviving for 60 days or longer / mice tested (Leukemia L-1210 cells; 1.25 mg/kg/day i.p.): 1/4
- % Increase in life-span (T/C, %) (Leukemia L-1210 cells; [5]): > 407%
- mice cured and surviving for 60 days or longer / mice tested (Leukemia L-1210 cells; 2.5 mg/kg/day i.p.): 2/4
- % Increase in life-span (T/C, %) (Leukemia L-1210 cells; [6]): > 666%
- mice cured and surviving for 60 days or longer / mice tested (Leukemia L-1210 cells; 5 mg/kg/day i.p.): 2/4
- % Increase in life-span (T/C, %) (Leukemia L-1210 cells; [7]): > 502%
- antitumor activities (in words) (Leukemia L-1210 cells): a little inferior to the antitumor activities of said mixture of Compounds 8b and 9b but are yet considerably high antiumor activities
- IC50 [1]: 0.31 µg/mL (≈ 0.44 µM)
- IC50 ([2]; P388, 72 h): < 0.0098 µg/mL

SMILES: COc1cccc2c1C(=O)c1c(O)c3c(c(O)c1C2=O)C[C@@](O)(C(=O)CO)C[C@@H]3O[C@@H]1O[C@@H](C)[C@@H](OC(=O)[C@@H](N)C(C)C)[C@@H](OC(=O)[C@@H](N)C(C)C)[C@H]1F [Compound 11d, 7-O-(2,6-dideoxy-2-fluoro-3,4-di-O-L-valyl-α-L-talopyranosyl)adriamycinone]
- IC50 [1]: 0.32 µg/mL (≈ 0.421 µM)
- IC50 ([2]; P388, 72 h): < 0.0098 µg/mL

SMILES: COc1cccc2c1C(=O)c1c(O)c3c(c(O)c1C2=O)C[C@@](O)(C(=O)CO)C[C@@H]3O[C@@H]1O[C@@H](C)[C@@H](OC(=O)[C@@H](N)CC(C)C)[C@@H](OC(=O)[C@@H](N)CC(C)C)[C@H]1F [Compound 11e, 7-O-(2,6-dideoxy-2-fluoro-3,4-di-O-L-leucyl-α-L-talopyranosyl)adriamycinone]
- IC50 [1]: 0.27 µg/mL (≈ 0.342 µM)
- IC50 [2, 8]: 0.032 µg/mL (≈ 0.0406 µM)

SMILES: COc1cccc2c1C(=O)c1c(O)c3c(c(O)c1C2=O)C[C@@](O)(C(=O)CO)C[C@@H]3O[C@@H]1O[C@@H](C(F)(F)F)[C@@H](OC(=O)CN)[C@@H](OC(=O)CN)[C@H]1F [Compound 18, 7-O-(2,6-dideoxy-2,6,6,6-tetrafluoro-3,4-di-O-glycyl-α-L-talopyranosyl)adriamycinone]
- IC50 [1]: 0.28 µg/mL (≈ 0.383 µM)
- IC50 [2, 8]: < 0.0098 µg/mL

SMILES: COc1cccc2c1C(=O)c1c(O)c3c(c(O)c1C2=O)C[C@@](O)(C(=O)CO)C[C@@H]3O[C@H]1C[C@H](OC(=O)CN)[C@H](OC(=O)CN)[C@H](C(F)(F)F)O1 [Compound 25, 7-O-(2,6-dideoxy-6,6,6-trifluoro-3,4-di-O-glycyl-α-L-lyxo-hexopryranosyl)adriamycinone]
- IC50 ([2]; P388, 72 h): < 0.0098 µg/mL

SMILES: COc1cccc2c1C(=O)c1c(O)c3c(c(O)c1C2=O)C[C@@](O)(C(=O)CO)C[C@@H]3O[C@@H]1O[C@@H](C(F)(F)F)[C@@H](OC(=O)[C@H](C)N)[C@@H](OC(=O)[C@H](C)N)[C@H]1F [Compound 31, 7-O-(3,4-di-O-L-alanyl-2,6-dideoxy-2,6,6,6-tetrafluoro-α-L-talopyranosyl)adriamycinone]
- IC50 [1]: 0.14 µg/mL (≈ 0.185 µM)
- IC50 [2, 8]: < 0.0098 µg/mL

SMILES: COc1cccc2c1C(=O)c1c(O)c3c(c(O)c1C2=O)C[C@@](O)(C(=O)CO)C[C@@H]3O[C@@H]1O[C@@H](C(F)(F)F)[C@@H](OC(=O)[C@@H](N)Cc2ccccc2)[C@@H](OC(=O)[C@@H](N)Cc2ccccc2)[C@H]1F [Compound 37, 7-O-(2,6-dideoxy-2,6,6,6-tetrafuluoro-3,4-di-O-L-phenylalanyl-α-L-talopyranosyl)adriamycinone]
- IC50 [1]: 0.17 µg/mL (≈ 0.187 µM)
- IC50 [2, 8]: 0.016 µg/mL (≈ 0.0176 µM)

SMILES: COc1cccc2c1C(=O)c1c(O)c3c(c(O)c1C2=O)C[C@@](O)(C(=O)CO)C[C@@H]3O[C@H]1C[C@H](OC(=O)[C@H](C)N)[C@H](OC(=O)[C@H](C)N)[C@H](C(F)(F)F)O1 [Compound 43, 7-O-(3,4-di-O-L-alanyl-2,6-dideoxy-6,6,6-trifluoro-α-L-lyxo-hexopyranosyl)adriamycinone]
- IC50 [1]: 0.22 µg/mL (≈ 0.297 µM)
- IC50 ([2]; P388, 72 h): < 0.0098 µg/mL

SMILES: COc1cccc2c1C(=O)c1c(O)c3c(c(O)c1C2=O)C[C@@](O)(C(=O)CO)C[C@@H]3O[C@H]1C[C@H](OC(=O)[C@@H](N)Cc2ccccc2)[C@H](OC(=O)[C@@H](N)Cc2ccccc2)[C@H](C(F)(F)F)O1 [Compound 49, 7-O-(2,6-dideoxy-6,6,6-trifluoro-3,4-di-O-L-phenylalanyl-α-L-lyxo-hexopyranosyl)adriamycinone]
- IC50 [1]: 0.28 µg/mL (≈ 0.314 µM)
- IC50 [2, 8]: 0.02 µg/mL (≈ 0.0224 µM)

SMILES: COc1cccc2c1C(=O)c1c(O)c3c(c(O)c1C2=O)C[C@@](O)(C(=O)CO)C[C@@H]3O[C@@H]1O[C@@H](C)[C@@H](O)[C@@H](O)[C@H]1F [FT-ADM, 7-O-(2,6-dideoxy-2-fluoro-α-L-talopyranosyl)adriamycinone, reference compound]
- % Increase in life-span (T/C, %) (Leukemia L-1210 cells; 0.15 mg/kg/day i.p.): 127%
- % Increase in life-span (T/C, %) (Leukemia L-1210 cells; [3]): 182%
- % Increase in life-span (T/C, %) (Leukemia L-1210 cells; [4]): 185%
- % Increase in life-span (T/C, %) (Leukemia L-1210 cells; [5]): 275%
- mice cured and surviving for 60 days or longer / mice tested (Leukemia L-1210 cells; 2.5 mg/kg/day i.p.): 1/4
- % Increase in life-span (T/C, %) (Leukemia L-1210 cells; [6]): > 352%
- mice cured and surviving for 60 days or longer / mice tested (Leukemia L-1210 cells; 5 mg/kg/day i.p.): 4/4
- % Increase in life-span (T/C, %) (Leukemia L-1210 cells; [7]): > 740%

SMILES: COc1cccc2c1C(=O)c1c(O)c3c(c(O)c1C2=O)C[C@@](O)(C(C)=O)C[C@@H]3O[C@@H]1O[C@@H](C)[C@@H](O)[C@@H](O)[C@H]1F [FT-DM, 7-O-(2,6-dideoxy-2-fluoro-α-L-talopyranosyl)daunomycinone, reference compound]
- % Increase in life-span (T/C, %) (Leukemia L-1210 cells; 0.15 mg/kg/day i.p.): 105%
- % Increase in life-span (T/C, %) (Leukemia L-1210 cells; [4]): 125%
- % Increase in life-span (T/C, %) (Leukemia L-1210 cells; [5]): 171%
- % Increase in life-span (T/C, %) (Leukemia L-1210 cells; [6]): 217%
- % Increase in life-span (T/C, %) (Leukemia L-1210 cells; [7]): 184%
